According to patent publication US10227351B2, “Salt and polymorphic forms of (3R,4S)-L-((4-amino-5H-pyrrolo[3,2,-D]pyrimidin-7-yl)methyl)-4(methylthiomethyl)pyrodin-3-ol(MTDIA)” (VICTORIA LINK LIMITED, priority 2012, dated 2019):

Assay: Stated properties of the phosphate salt form (no method described)
Format: physicochemical
Conditions: comparator not stated in that sentence, no data given

solubility: improved
stability: improved
Compound: CSC[C@H]1CN(Cc2c[nH]c3c(N)ncnc23)C[C@@H]1O [(3R,4S)-1-((4-amino-5H-pyrrolo[3,2-d]pyrimidin-7-yl)methyl)-4-(methylthiomethyl)pyrrolidin-3-ol phosphate]
